We go through four molecules from patent publication US20240325336A1, “COMBINATION THERAPIES COMPRISING OXYGEN-CONTAINING STRUCTURALLY ENHANCED FATTY ACIDS FOR TREATMENT OF NON-ALCOHOLIC STEATOHEPATITIS” (NORTHSEA THERAPEUTICS B.V., priority 2020, published 2024).

“Also recorded” adds a separate entry of the source.

For experiment [1], the system named is male CDAA-HFD mice. Nature of the experiment: CDAA/high-fat diet NASH mouse model: hepatic fibrosis markers (hydroxyproline, galectin-3, PSR, α-SMA). The class given is in vivo. The conditions noted are these: 8 weeks QD; for galectin-3 hepatic fractional area: compared to untreated vehicle group (FIG. 9B); for hepatic fibrotic area determined by PSR staining: compared to untreated vehicle group (FIG. 10A); for sinusoidal fibrotic area (PSR): compared to untreated vehicle group (FIG. 10B). From the text:
(§1) Although the widely used methionine-choline deficient (MCD) diet consistently reproduces severe NASH-like hepatic inflammation and fibrosis in mice, it is also associated with severe weight-loss (loss of both skeletal muscle and fat mass). This is associated with an increased risk of death which presents major problems for long-term fibrogenesis experiments. […] In the current study, male mice (strain C57BI/6JRj) were fed choline deficient high-fat diets (45% of total calories from fat; “CDAA/high-fat” or “CDAA-HFD”). The NASH inducing diet was instigated 6 weeks prior to the commencement of administration of active agents in order to evaluate treatment and reversal of NASH parameters. The NASH inducing CDAA-HFD was continued for the 8 weeks of administration of the indicated active agents and combinations thereof.
(§2) Prior to administration of the activate agents, animals were randomized into treatment groups based on body weight. A baseline group (n=12) was terminated at study start after 6 weeks on the CDAA-HFD diet. CDAA-HFD fed mice (n=10-12 per group) received daily per oral (PO) treatment with vehicle, Compound A (112 mg/kg), OCA (30 mg/kg), semaglutide (30 nmol/kg SC), firsocostat (5 mg/kg), Compound A+Semaglutide (112 mg/kg+30 nmol/kg), Compound A+OCA (112 mg/kg+30 mg/kg), and Compound A+firsocostat (112 mg/kg+5 mg/kg) for 8 weeks. Terminal liver biopsy were analyzed for histopathological scores. Terminal quantitative endpoints included plasma/liver biochemistry and liver histomorphometry.
Scanned PSR stained slides were analyzed in several steps: • 1. Tissue detection at low magnification, followed by deep learning-based detection of portal triads and central veins at 10× magnification. Periportal zone was defined as 100 μm around the portal triads. • 2. Fibrosis fibers were detected using the linear Bayesian image analysis method in the periportal and sinusoidal zones. • 3. Bridging was detected using threshold image analysis based on a polynomial local linear filter feature. • 4. Different measures of size, shape and connectivity form both fibrosis and bridging fibrosis in the two zoned were used in a XGBoost classifier to predict fibrosis stage.
Immunohistochemistry (IHC)-positive staining was quantified by image analysis using the VIS software (Visiopharm®, Denmark) using two steps: • 1. Detection of tissue at low magnification (1× objective), excluding the liver capsule; and • 2. Detection of IHC-positive staining.
The quantitation of IHC-positive staining is calculated as an area fraction as follows: […]
IHC factional area quantification was assessed for galectin-3, collagen 1A1, and α-smooth muscle actin.
Hepatic factional area assessment with picrosirius red stain was determined using the same methods.
Hepatic fibrotic area was determined by staining with picrosirus red (PSR), which binds collagen, and histological quantitative assessment.

Experiment [2] deals with male CDAA-HFD mice. The experiment can be described thus: CDAA/high-fat diet NASH mouse model: liver total cholesterol and triglycerides. The format is in vivo. Particulars: 8 weeks QD; for relative levels of liver total cholesterol (normalized to liver weight): compared to untreated vehicle group (FIG. 4A); for relative levels of liver triglycerides (normalized to liver weight): compared to untreated vehicle group (FIG. 4B).
Description: as §1
(§3) The aim of this study was to evaluate the effects of 8 weeks of administration of Compound A, OCA, semaglutide, and firsocostat alone and in combination on metabolic parameters, hepatic pathology, and on NAFLD Activity Score including Fibrosis Stage in male CDAA-HFD mice.
as §2

Experiment [3] concerns male CDAA-HFD mice. Nature of the experiment: CDAA/high-fat diet NASH mouse model: plasma triglycerides and total cholesterol. The format is in vivo. Particulars: 8 weeks QD, compared to untreated vehicle group (FIG. 3A).
Description: as §1, §3
Prior to administration of the activate agents, animals were randomized into treatment groups based on body weight. […] Terminal liver biopsy were analyzed for histopathological scores. Terminal quantitative endpoints included plasma/liver biochemistry and liver histomorphometry.

Experiment [4] deals with male CDAA-HFD mice. Nature of the experiment: CDAA/high-fat diet NASH mouse model: hepatic inflammation and NAFLD activity score. The class given is in vivo. The conditions noted are these: 8 weeks QD; for NAFLD activity scores (NAS): compared to untreated vehicle group (FIG. 8B); for number of inflammatory cells (per mm^2): compared to untreated vehicle group and to baseline levels (FIG. 7A); for inflammatory foci (per mm^2): compared to untreated vehicle group and to baseline levels (FIG. 7B).
Description: as §1, §2
(§4) Liver samples stained with Hematoxylin and Eosin (H&E) or Picro Sirius Red (PSR) were scored for NAS components (steatosis, lobular inflammation, and ballooning degeneration) and fibrosis stage respectively using the clinical criteria outlined by Kleiner et al., Hepatology, 2005; 41. Total NAS represents the sum of scores for steatosis, inflammation, and ballooning, and ranges from 0-8.
(§5) NAS and fibrosis stage was determined by deep learning applications developed by Gubra (Denmark) using the VIS software (Visiopharm®, Denmark) for a more accurate and objective method for staging disease in DIO-NASH mouse models.
(§6) Scanned H&E stained slides were analyzed in several steps: • 1. Tissue detection at low magnification, followed by deep learning-based detection of portal triads and central veins at 10× magnification. • 2. Another deep learning application detected nuclei of hepatocytes with lipid droplets, hepatocytes without lipids, ballooned hepatocytes, and inflammatory cells at 20× magnification. Inflammatory foci were defined as a cluster of >3 inflammatory cells. • 3. The inflammation score of the liver tissue sample was the average score for all 20× fields.

Experiment [5] can be described thus: CDAA/high-fat diet NASH mouse model: relative body weight and liver weight. The format is in vivo. Particulars: CDAA-HFD mice, 8 weeks QD; for liver weight: compared to untreated vehicle group (FIG. 1B).
Description: as §1, §3, §2

The next experiment has as its system rodent NASH models. Particulars: APOE*3Leiden.CETP high-fat diet, ob/ob AMLN, STAM and CDAA/high-fat diet mouse models; WO2019111048; cited from earlier work.
The test system of experiment [6] is male CDAA-HFD mice. The experiment can be described thus: CDAA/high-fat diet NASH mouse model: hepatic steatosis (H&E image analysis, steatosis score). The format is in vivo. The conditions noted are these: 8 weeks QD; for percentage of hepatocytes with lipid droplets: compared to untreated vehicle group (FIG. 5B); for steatosis scores: compared to untreated vehicle group (FIG. 6); for hepatic steatosis area (relative liver lipids): compared to untreated vehicle group (FIG. 5A).
Description: as §1, §2, §4, §5, §6
Steatosis score was calculated as percentage of hepatocytes with lipid droplets.
Hepatic steatosis area (relative liver lipids) was quantified on H&E stained slides by image analysis using the VIS software (Visiopharm®, Denmark). VIS protocols are designed to analyze the virtual slides in two steps: • 1. Tissue detection at low magnification (1× objective); and • 2. Detection of steatosis and tissue at high magnification (20× objective).
The quantitative estimates of steatosis were calculated as an area fraction as follows: […]

The subject of another experiment is APOE*3Leiden.CETP mice. Particulars: WO2016173923A1, cited from earlier work.

In the case of `CC/C=C\C/C=C\C/C=C\C/C=C\C/C=C\CCCCOC(CC)C(=O)O` (centres unmarked) [Compound A, 2-((5Z,8Z,11Z,14Z,17Z)-icosa-5,8,11,14,17-pentaenyloxy)butanoic acid], in the experiment with male CDAA-HFD mice [1], the “galectin-3 hepatic fractional area” value was “significantly decreased”, the “hepatic fibrotic area determined by PSR staining” value is “significantly decreased” and the “sinusoidal fibrotic area (PSR)” value is given as “Neither compound alone had a significant effect”. The “hepatic area expressing α-SMA” value in the experiment with male CDAA-HFD mice [1] (compared to untreated vehicle group (FIG. 11B)) is on record as “neither Compound A nor OCA significantly affecting”. In addition, in the experiment on male CDAA-HFD mice [2], the “relative levels of liver total cholesterol (normalized to liver weight)” value was “significant decrease” and the “relative levels of liver triglycerides (normalized to liver weight)” value is “significant decrease”. Also, in the experiment with male CDAA-HFD mice [3], the plasma triglycerides entry is listed as “significantly decreased”. Further, in the experiment on male CDAA-HFD mice [4], the “NAFLD activity scores (NAS)” value is “significantly decreased”, the “number of inflammatory cells (per mm^2)” value is reported as “significant decrease; also recorded: below the baseline level” and the “inflammatory foci (per mm^2)” value was “significant decrease; also recorded: below the baseline level”. In addition, in experiment [5], the liver weight entry is reported as “decreased”. In the experiment with rodent NASH models, the “effect on aspects of NASH (hepatic steatosis, inflammation, fibrosis)” value was “address multiple aspects of NASH, including hepatic steatosis, inflammation, and fibrosis”. For the same molecule, in the experiment on male CDAA-HFD mice [6], the “percentage of hepatocytes with lipid droplets” value (from here on “percentage of hepatocytes”) is reported as “significantly decreased” and the steatosis scores result is reported as “decreased”.
For the molecule `CC/C=C\C/C=C\C/C=C\C/C=C\C/C=C\CCCCSC(CC)(CC)C(=O)O` [Compound N, 2-ethyl-2-((5Z,8Z,11Z,14Z,17Z)-icosa-5,8,11,14,17-pentaenylthio)butanoic acid], in the experiment on APOE*3Leiden.CETP mice (APOE*3Leiden.CETP mice), the “fibrosis (as measured by hydroxyproline/proline ratio)” value is listed as “effective in reducing fibrosis”. In addition, in the experiment on APOE*3Leiden.CETP mice, the “influx of inflammatory cells into the liver” value was “prevented” and the “preventing diet-induced hepatic fibrosis, compared with rosiglitazone” value is on record as “superior to rosiglitazone”.
In the case of semaglutide, in the experiment with male CDAA-HFD mice [1], the “galectin-3 hepatic fractional area” value is “not having a significant effect”, the “hepatic fibrotic area determined by PSR staining” value is listed as “did not significantly affect” and the “sinusoidal fibrotic area (PSR)” value is given as “Neither compound alone had a significant effect”. In addition, the “galectin-3 hepatic fractional area” value in the experiment with male CDAA-HFD mice [1] (listed as semaglutidue) is given as “neither semaglutidue nor firsocostat having a significant effect”. Further, the “galectin-3 expressing area compared to baseline” value with male CDAA-HFD mice [1] (vs baseline (6 weeks CDAA-HFD, before therapy) (FIG. 9B)) is reported as “significantly increased”. In the experiment with male CDAA-HFD mice [2], the “relative levels of liver total cholesterol (normalized to liver weight)” value is recorded as “did not significantly affect” and the “relative levels of liver triglycerides (normalized to liver weight)” value is given as “not significantly affecting”. In addition, in the experiment with male CDAA-HFD mice [4], the “number of inflammatory cells (per mm^2)” value is on record as “not having a significant effect” and the “inflammatory foci (per mm^2)” value is reported as “not having a significant effect”. Also, the liver weight result in experiment [5] is “decreased”. In addition, in experiment [5] (compared to vehicle (FIG. 1A)), the “last recorded relative body weight” value is reported as “decreased”. For the same molecule, in the experiment with male CDAA-HFD mice [6], the “hepatic steatosis area (relative liver lipids)” value is listed as “not significantly affecting either parameter; also recorded: did not have a significant effect” and the “percentage of hepatocytes” value is on record as “not significantly affecting either parameter; also recorded: did not significantly affect”.
Take `COc1ccccc1[C@H](Cn1c(=O)n(C(C)(C)C(=O)O)c(=O)c2c(C)c(-c3ncco3)sc21)OC1CCOCC1` [firsocostat]: in the experiment with male CDAA-HFD mice [1], the “galectin-3 hepatic fractional area” value was “neither semaglutidue nor firsocostat having a significant effect”. The “NAFLD activity scores (NAS)” value in the experiment on male CDAA-HFD mice [4] is on record as “significantly decreased”. Further, in the experiment with male CDAA-HFD mice [6], the “hepatic steatosis area (relative liver lipids)” value is recorded as “significantly greater”, the “percentage of hepatocytes” value is given as “significantly decreased” and the steatosis scores entry is listed as “decreased”.
